From ChEMBL document CHEMBL3046083, “Synthesis, characterization and antimicrobial evaluation of novel derivatives of isoniazid” (2012)
In brackets after ≈: the same amount, converted by molar mass.

Legend:
Format in all cases: functional
[1] = system: Nakaseomyces glabratus; assay: Antimicrobial activity against Candida glabrata ATCC 10233 by broth dilution method
[2] = system: Candida albicans; assay: Antimicrobial activity against Candida albicans ATCC 10231 by broth dilution method
[3] = system: Escherichia coli; assay: Antimicrobial activity against Escherichia coli ATCC 25922 after 24 hr by broth dilution method; settings: ATCC 25922, 24 h
[4] = system: Pseudomonas aeruginosa; assay: Antimicrobial activity against Pseudomonas aeruginosa ATCC […] after 24 hr by broth dilution method
[5] = system: Staphylococcus aureus; assay: Antimicrobial activity against Staphylococcus aureus ATCC 29213 after 24 hr by broth dilution method; settings: ATCC 29213, 24 h
[6] = system: Bacillus subtilis; assay: Antimicrobial activity against Bacillus subtilis ATCC […] after 24 hr by broth dilution method
[7] = system: Nakaseomyces glabratus; assay: Antimicrobial activity against Candida glabrata ATCC 10233 at 100 ug/ml after 24 to 48 hr by agar diffusion method; settings: read-out: DIZ
[8] = system: Candida albicans; assay: Antimicrobial activity against Candida albicans ATCC 10231 at 100 ug/ml after 24 to 48 hr by agar diffusion method; settings: read-out: DIZ
[9] = system: Escherichia coli; assay: Antimicrobial activity against Escherichia coli ATCC 25922 at 100 ug/ml after 24 to 48 hr by agar diffusion method; settings: read-out: DIZ
[10] = system: Pseudomonas aeruginosa; assay: Antimicrobial activity against Pseudomonas aeruginosa ATCC […] at 100 ug/ml after 24 to 48 hr by agar diffusion method; settings: read-out: DIZ
[11] = system: Staphylococcus aureus; assay: Antimicrobial activity against Staphylococcus aureus ATCC 29213 at 100 ug/ml after 24 to 48 hr by agar diffusion method; settings: read-out: DIZ
[12] = system: Bacillus subtilis; assay: Antimicrobial activity against Bacillus subtilis ATCC […] at 100 ug/ml after 24 to 48 hr by agar diffusion method; settings: read-out: DIZ

Row | Compound | MFC [1] [µg/mL] | MIC [1] [µg/mL] | MIC50 [1] [µg/mL] | MFC [2] [µg/mL] | MIC [2] [µg/mL] | MIC50 [2] [µg/mL] | MIC [3] [µg/mL] | MIC50 [3] [µg/mL] | MIC [4] [µg/mL] | MIC50 [4] [µg/mL] | MIC [5] [µg/mL] | MIC50 [5] [µg/mL] | MIC [6] [µg/mL] | MIC50 [6] [µg/mL] | zone of inhibition at 100 µg/mL [7] [mm] | zone of inhibition at 100 µg/mL [8] [mm] | zone of inhibition at 100 µg/mL [9] [mm] | zone of inhibition at 100 µg/mL [10] [mm] | zone of inhibition at 100 µg/mL [11] [mm] | zone of inhibition at 100 µg/mL [12] [mm]
1 | NYSTATIN | 25 | 12.5 | 6.4 | 12.5 | 6.25 | 3.2 | – | – | – | – | – | – | – | – | – | – | – | – | – | –
2 | CCOc1c(/C=N\NC(=O)c2ccncc2)cccc1CN(C)C | 100 (≈ 306 µM) | 25 (≈ 76.6 µM) | 25.6 (≈ 78.4 µM) | 100 (≈ 306 µM) | 25 (≈ 76.6 µM) | 12.8 (≈ 39.2 µM) | 25 (≈ 76.6 µM) | 12.8 (≈ 39.2 µM) | 25 (≈ 76.6 µM) | 12.8 (≈ 39.2 µM) | 25 (≈ 76.6 µM) | 12.8 (≈ 39.2 µM) | 50 (≈ 153 µM) | 12.8 (≈ 39.2 µM) | 14 | 13 | 20 | 15 | 21 | 17
3 | CCCN(CCC)Cc1cccc(/C=N\NC(=O)c2ccncc2)c1OCC | 100 (≈ 261 µM) | 12.5 (≈ 32.7 µM) | 12.8 (≈ 33.5 µM) | 50 (≈ 131 µM) | 25 (≈ 65.4 µM) | 12.8 (≈ 33.5 µM) | 12.5 (≈ 32.7 µM) | 6.4 (≈ 16.7 µM) | 12.5 (≈ 32.7 µM) | 6.4 (≈ 16.7 µM) | 25 (≈ 65.4 µM) | 6.4 (≈ 16.7 µM) | 25 (≈ 65.4 µM) | 12.8 (≈ 33.5 µM) | 15 | 15 | 22 | 18 | 22 | 21
4 | CCOc1ccccc1/C=N\NC(=O)c1ccncc1 | 100 (≈ 371 µM) | 25 (≈ 92.8 µM) | 25.6 (≈ 95.1 µM) | 50 (≈ 186 µM) | 50 (≈ 186 µM) | 25.6 (≈ 95.1 µM) | 50 (≈ 186 µM) | 25.6 (≈ 95.1 µM) | 25 (≈ 92.8 µM) | 12.8 (≈ 47.5 µM) | 25 (≈ 92.8 µM) | 12.8 (≈ 47.5 µM) | 50 (≈ 186 µM) | 25.6 (≈ 95.1 µM) | 11 | 13 | 18 | 14 | 19 | 15
5 | CCOc1c(/C=N\NC(=O)c2ccncc2)cccc1CN(CC)CC | 100 (≈ 282 µM) | 25 (≈ 70.5 µM) | 25.6 (≈ 72.2 µM) | 25 (≈ 70.5 µM) | 25 (≈ 70.5 µM) | 12.8 (≈ 36.1 µM) | 25 (≈ 70.5 µM) | 12.8 (≈ 36.1 µM) | 25 (≈ 70.5 µM) | 12.8 (≈ 36.1 µM) | 25 (≈ 70.5 µM) | 12.8 (≈ 36.1 µM) | 25 (≈ 70.5 µM) | 12.8 (≈ 36.1 µM) | 14 | 15 | 20 | 16 | 21 | 19
6 | CCOc1c(/C=N\NC(=O)c2ccncc2)cccc1CN1CCOCC1 | 50 (≈ 136 µM) | 12.5 (≈ 33.9 µM) | 12.8 (≈ 34.7 µM) | 25 (≈ 67.9 µM) | 12.5 (≈ 33.9 µM) | 6.4 (≈ 17.4 µM) | 6.25 (≈ 17 µM) | 3.2 (≈ 8.69 µM) | 12.5 (≈ 33.9 µM) | 6.4 (≈ 17.4 µM) | 6.25 (≈ 17 µM) | 3.2 (≈ 8.69 µM) | 12.5 (≈ 33.9 µM) | 6.4 (≈ 17.4 µM) | 21 | 21 | 31 | 22 | 32 | 27
7 | CCOc1c(/C=N\NC(=O)c2ccncc2)cccc1CN1CCCCC1 | 100 (≈ 273 µM) | 12.5 (≈ 34.1 µM) | 12.8 (≈ 34.9 µM) | 100 (≈ 273 µM) | 12.5 (≈ 34.1 µM) | 12.8 (≈ 34.9 µM) | 12.5 (≈ 34.1 µM) | 6.4 (≈ 17.5 µM) | 12.5 (≈ 34.1 µM) | 6.4 (≈ 17.5 µM) | 12.5 (≈ 34.1 µM) | 6.4 (≈ 17.5 µM) | 25 (≈ 68.2 µM) | 12.8 (≈ 34.9 µM) | 16 | 16 | 25 | 20 | 25 | 23
8 | CCOc1c(/C=N\NC(=O)c2ccncc2)cccc1CN(c1ccccc1)c1ccccc1 | 50 (≈ 111 µM) | 12.5 (≈ 27.7 µM) | 12.8 (≈ 28.4 µM) | 25 (≈ 55.5 µM) | 12.5 (≈ 27.7 µM) | 6.4 (≈ 14.2 µM) | 6.25 (≈ 13.9 µM) | 3.2 (≈ 7.1 µM) | 12.5 (≈ 27.7 µM) | 6.4 (≈ 14.2 µM) | 6.25 (≈ 13.9 µM) | 3.2 (≈ 7.1 µM) | 12.5 (≈ 27.7 µM) | 6.4 (≈ 14.2 µM) | 22 | 21 | 32 | 22 | 31 | 26
9 | CCOc1c(/C=N\NC(=O)c2ccncc2)cccc1CN1CCN(C)CC1 | 50 (≈ 131 µM) | 12.5 (≈ 32.8 µM) | 12.8 (≈ 33.6 µM) | 25 (≈ 65.5 µM) | 12.5 (≈ 32.8 µM) | 6.4 (≈ 16.8 µM) | 6.25 (≈ 16.4 µM) | 3.2 (≈ 8.39 µM) | 12.5 (≈ 32.8 µM) | 6.4 (≈ 16.8 µM) | 6.25 (≈ 16.4 µM) | 3.2 (≈ 8.39 µM) | 12.5 (≈ 32.8 µM) | 6.4 (≈ 16.8 µM) | 20 | 22 | 32 | 22 | 33 | 26
10 | CCOc1c(/C=N\NC(=O)c2ccncc2)cccc1CN1CCNCC1 | 50 (≈ 136 µM) | 12.5 (≈ 34 µM) | 12.8 (≈ 34.8 µM) | 25 (≈ 68 µM) | 12.5 (≈ 34 µM) | 6.4 (≈ 17.4 µM) | 6.25 (≈ 17 µM) | 3.2 (≈ 8.71 µM) | 12.5 (≈ 34 µM) | 6.4 (≈ 17.4 µM) | 3.12 (≈ 8.49 µM) | 3.2 (≈ 8.71 µM) | 12.5 (≈ 34 µM) | 6.4 (≈ 17.4 µM) | 23 | 24 | 33 | 23 | 34 | 27
11 | CCOc1c(/C=N\NC(=O)c2ccncc2)cccc1CN1CCCC1 | 100 (≈ 284 µM) | 12.5 (≈ 35.5 µM) | 12.8 (≈ 36.3 µM) | 25 (≈ 70.9 µM) | 12.5 (≈ 35.5 µM) | 6.4 (≈ 18.2 µM) | 6.25 (≈ 17.7 µM) | 3.2 (≈ 9.08 µM) | 12.5 (≈ 35.5 µM) | 6.4 (≈ 18.2 µM) | 12.5 (≈ 35.5 µM) | 6.4 (≈ 18.2 µM) | 25 (≈ 70.9 µM) | 12.8 (≈ 36.3 µM) | 19 | 18 | 27 | 20 | 26 | 22
